# From patent publication US8889854B2, “C-17 bicyclic amines of triterpenoids with HIV maturation inhibitory activity” (priority 2012, dated 2014)
# Test system: recombinant NL4-3 virus (Renilla luciferase in nef, Gag P373S; NLRluc)
# Assay: HIV Cell Culture Assay (luciferase reporter virus in MT-2 cells)
# Type: cell-based
# Settings: MT-2 cells infected for 4-5 days with NLRluc recombinants; luciferase activity; reported as group A/B
# Procedure: MT-2 cells and 293T cells were obtained from the NIH AIDS Research and Reference Reagent Program. MT-2 cells were propagated in RPMI 1640 media supplemented with 10% heat inactivated fetal bovine serum, […]. The 293T cells were propagated in DMEM media supplemented with 10% heat inactivated fetal bovine serum (FBS), 100 units/mL penicillin G and 100 μg/mL streptomycin. The proviral DNA clone of NL4-3 was obtained from the NIH AIDS Research and Reference Reagent Program. A recombinant NL4-3 virus, in which a section of the nef gene from NL4-3 was replaced with the Renilla luciferase gene, was used as a reference virus. In addition, residue Gag P373 was converted to P373S. Briefly, the recombinant virus was prepared by transfection of the altered proviral clone of NL4-3. Transfections were performed in 293T cells using LipofectAMINE PLUS from Invitrogen (Carlsbad, Calif.), according to manufacturer's instruction. The virus was titered in MT-2 cells using luciferase enzyme activity as a marker. Luciferase was quantitated using the Dual Luciferase kit from Promega (Madison, Wis.), with modifications to the manufacturer's protocol. The diluted Passive Lysis solution was pre-mixed with the re-suspended Luciferase Assay Reagent and the re-suspended Stop & Glo Substrate (2:1:1 ratio). Fifty (50) μL of the mixture was added to each aspirated well on assay plates and luciferase activity was measured immediately on a Wallac TriLux (Perkin-Elmer). Antiviral activities of inhibitors toward the recombinant virus were quantified by measuring luciferase activity in cells infected for 4-5 days with NLRluc recombinants in the presence serial dilutions of the inhibitor. Table 1 is the key for the data in Table 2.
row,SMILES,EC50 [nM]
1,"C=C(C)[C@@H]1CC[C@]2(NCCN3C[C@H]4C[C@@H]3CS4(=O)=O)CC[C@]3(C)[C@H](CC[C@@H]4[C@@]5(C)CC=C(C6=CC7C(C6)C7C(=O)O)C(C)(C)[C@@H]5CC[C@]43C)[C@@H]12 (single isomer, unassigned) [Example B5]",< 100

# Same assay, conditions: Renilla, NL43, MT-2 cells infected for 4-5 days with NLRluc recombinants; luciferase activity
row,SMILES,EC50 [nM]
1,"C=C(C)[C@@H]1CC[C@]2(NCCN3C[C@@H]4C[C@H]3CN4Cc3ccccc3)CC[C@]3(C)[C@H](CC[C@@H]4[C@@]5(C)CC=C(c6ccc(C(=O)O)cc6)C(C)(C)[C@@H]5CC[C@]43C)[C@@H]12 [Example 9, 4-((1R,3aS,5aR,5bR,7aR,11aS,11bR,13aR,13bR)-3a-((2-((1S,4S)-5-benzyl-2,5-diazabicyclo[2.2.1]heptan-2-yl)ethyl)amino)-5a,5b,8,8,11a-pentamethyl-1-(prop-1-en-2-yl)-2,3,3a,4,5,5a,5b,6,7,7a,8,11,11a,11b,12,13,13a,13b-octadecahydro-1H-cyclopenta[a]chrysen-9-yl)benzoic acid]",6.09
2,C=C(C)[C@@H]1CC[C@]2(NCCN3CCC4(CC3)COC4)CC[C@]3(C)[C@H](CC[C@@H]4[C@@]5(C)CC=C(c6ccc(C(=O)O)cc6)C(C)(C)[C@@H]5CC[C@]43C)[C@@H]12 [Example B3],3.82
3,"C=C(C)[C@@H]1CC[C@]2(NCCN3C4CCC3CC(C)(O)C4)CC[C@]3(C)[C@H](CC[C@@H]4[C@@]5(C)CC=C(c6ccc(C(=O)O)cc6)C(C)(C)[C@@H]5CC[C@]43C)[C@@H]12 (stereo partly drawn) [Example A4, 4-((1R,3aS,5aR,5bR,7aR,11aS,11bR,13aR,13bR)-3a-((2-((1R,3S,5S)-3-hydroxy-3-methyl-8-azabicyclo[3.2.1]octan-8-yl)ethyl)amino)-5a,5b,8,8,11a-pentamethyl-1-(prop-1-en-2-yl)-2,3,3a,4,5,5a,5b,6,7,7a,8,11,11a,11b,12,13,13a,13b-octadecahydro-1H-cyclopenta[a]chrysen-9-yl)benzoic acid]",8.8
4,"C=C(C)[C@@H]1CC[C@]2(NCCN3C[C@H]4C[C@@H](C3)N4S(C)(=O)=O)CC[C@]3(C)[C@H](CC[C@@H]4[C@@]5(C)CC=C(c6ccc(C(=O)O)cc6)C(C)(C)[C@@H]5CC[C@]43C)[C@@H]12 [Example 14, 4-((1R,3aS,5aR,5bR,7aR,11aS,11bR,13aR,13bR)-5a,5b,8,8,11a-pentamethyl-3a-((2-((1R,5S)-6-(methylsulfonyl)-3,6-diazabicyclo[3.1.1]heptan-3-yl)ethyl)amino)-1-(prop-1-en-2-yl)-2,3,3a,4,5,5a,5b,6,7,7a,8,11,11a,11b,12,13,13a,13b-octadecahydro-1H-cyclopenta[a]chrysen-9-yl)benzoic acid]",3.24

# Same assay, conditions: Renilla, NL43, MT-2 cells infected for 4-5 days with NLRluc recombinants; luciferase activity; reported as group A/B
row,SMILES,EC50 [nM]
1,"CC(C)[C@@H]1CC[C@]2(NCCN3C[C@@H]4C[C@H]3CN4S(C)(=O)=O)CC[C@]3(C)[C@H](CC[C@@H]4[C@@]5(C)CC=C(c6ccc(C(=O)O)cc6)C(C)(C)[C@@H]5CC[C@]43C)[C@@H]12 [Example 12, 4-((1S,3aS,5aR,5bR,7aR,11aS,11bR,13aR,13bR)-1-isopropyl-5a,5b,8,8,11a-pentamethyl-3a-((2-((1S,4S)-5-(methylsulfonyl)-2,5-diazabicyclo[2.2.1]heptan-2-yl)ethyl)amino)-2,3,3a,4,5,5a,5b,6,7,7a,8,11,11a,11b,12,13,13a,13b-octadecahydro-1H-cyclopenta[a]chrysen-9-yl)benzoic acid]",< 100
2,"C=C(C)[C@@H]1CC[C@]2(NCCN3C[C@H]4C[C@@H]3CS4(=O)=O)CC[C@]3(C)[C@H](CC[C@@H]4[C@@]5(C)CC=C(C6=CC7C(C6)C7C(=O)O)C(C)(C)[C@@H]5CC[C@]43C)[C@@H]12 (single isomer, unassigned) [Example B4]",< 100
3,"C=C(C)[C@@H]1CC[C@]2(NCCN3CC4CC3CO4)CC[C@]3(C)[C@H](CC[C@@H]4[C@@]5(C)CC=C(C6=CCC(C(=O)O)CC6)C(C)(C)[C@@H]5CC[C@]43C)[C@@H]12 (stereo partly drawn) [Example B1, 4-((1R,3aS,5aR,5bR,7aR,11aS,11bR,13aR,13bR)-3a-((2-(2-oxa-5-azabicyclo[2.2.1]heptan-5-yl)ethyl)amino)-5a,5b,8,8,11a-pentamethyl-1-(prop-1-en-2-yl)-2,3,3a,4,5,5a,5b,6,7,7a,8,11,11a,11b,12,13,13a,13b-octadecahydro-1H-cyclopenta[a]chrysen-9-yl)cyclohex-3-enecarboxylic acid]",< 100
4,"C=C(C)[C@@H]1CC[C@]2(NCCN3C[C@@H]4C[C@H]3CS4(=O)=O)CC[C@]3(C)[C@H](CC[C@@H]4[C@@]5(C)CC=C(C6=CC[C@H](C(=O)O)CC6)C(C)(C)[C@@H]5CC[C@]43C)[C@@H]12 [Example B11, (R)-4-((1R,3aS,5aR,5bR,7aR,11aS,11bR,13aR,13bR)-3a-((2-((1S,4S)-2,2-dioxido-2-thia-5-azabicyclo[2.2.1]heptan-5-yl)ethyl)amino)-5a,5b,8,8,11a-pentamethyl-1-(prop-1-en-2-yl)-2,3,3a,4,5,5a,5b,6,7,7a,8,11,11a,11b,12,13,13a,13b-octadecahydro-1H-cyclopenta[a]chrysen-9-yl)cyclohex-3-enecarboxylic acid]",< 100
5,"C=C(C)[C@@H]1CC[C@]2(NCCN3C[C@@H]4C[C@H]3CO4)CC[C@]3(C)[C@H](CC[C@@H]4[C@@]5(C)CC=C(C6=CC[C@@H](C(=O)O)CC6)C(C)(C)[C@@H]5CC[C@]43C)[C@@H]12 [Example B10, (S)-4-((1R,3 aS,5aR,5bR,7aR,11aS,11bR,13 aR,13bR)-3a-((2-((1S,4S)-2-oxa-5-azabicyclo[2.2.1]heptan-5-yl)ethyl)amino)-5a,5b,8,8,11a-pentamethyl-1-(prop-1-en-2-yl)-2,3,3a,4,5,5a,5b,6,7,7a,8,11,11a,11b,12,13,13a,13b-octadecahydro-1H-cyclopenta[a]chrysen-9-yl)cyclohex-3-enecarboxylic acid]",< 100
6,"C=C(C)[C@@H]1CC[C@]2(NCCN3C[C@@H]4C[C@H]3CN4S(C)(=O)=O)CC[C@]3(C)[C@H](CC[C@@H]4[C@@]5(C)CC=C(c6ccc(C(=O)O)cc6)C(C)(C)[C@@H]5CC[C@]43C)[C@@H]12 [Example 11, 4-((1R,3aS,5aR,5bR,7aR,11aS,11bR,13aR,13bR)-5a,5b,8,8,11a-pentamethyl-3a-((2-((1S,4S)-5-(methylsulfonyl)-2,5-diazabicyclo[2.2.1]heptan-2-yl)ethyl)amino)-1-(prop-1-en-2-yl)-2,3,3a,4,5,5a,5b,6,7,7a,8,11,11a,11b,12,13,13a,13b-octadecahydro-1H-cyclopenta[a]chrysen-9-yl)benzoic acid]",< 100
7,"C=C(C)[C@@H]1CC[C@]2(NCCN3C[C@@H]4C[C@H]3CO4)CC[C@]3(C)[C@H](CC[C@@H]4[C@@]5(C)CC=C(c6ccc(C(=O)O)cc6)C(C)(C)[C@@H]5CC[C@]43C)[C@@H]12 [Example 7, 4-((1R,3aS,5aR,5bR,7aR,11aS,11bR,13aR,13bR)-3a-((2-((1S,4S)-2-oxa-5-azabicyclo[2.2.1]heptan-5-yl)ethyl)amino)-5a,5b,8,8,11a-pentamethyl-1-(prop-1-en-2-yl)-2,3,3a,4,5,5a,5b,6,7,7a,8,11,11a,11b,12,13,13a,13b-octadecahydro-1H-cyclopenta[a]chrysen-9-yl)benzoic acid]",< 100
8,"CC(C)[C@@H]1CC[C@]2(NC(=O)CN3C[C@@H]4C[C@H]3CS4(=O)=O)CC[C@]3(C)[C@H](CC[C@@H]4[C@@]5(C)CC=C(c6ccc(C(=O)O)cc6)C(C)(C)[C@@H]5CC[C@]43C)[C@@H]12 [Example 4, 4-((1S,3aS,5aR,5bR,7aR,11aS,11bR,13aR,13bR)-3a-(2-((1S,4S)-2,2-dioxido-2-thia-5-azabicyclo[2.2.1]heptan-5-yl)acetamido)-1-isopropyl-5a,5b,8,8,11a-pentamethyl-2,3,3a,4,5,5a,5b,6,7,7a,8,11,11a,11b,12,13,13a,13b-octadecahydro-1H-cyclopenta[a]chrysen-9-yl)benzoic acid]",< 100
9,"CC(C)[C@@H]1CC[C@]2(NCCN3C[C@@H]4C[C@H]3CO4)CC[C@]3(C)[C@H](CC[C@@H]4[C@@]5(C)CC=C(c6ccc(C(=O)O)cc6)C(C)(C)[C@@H]5CC[C@]43C)[C@@H]12 [Example 8, 4-((1S,3aS,5aR,5bR,7aR,11aS,11bR,13aR,13bR)-3a-((2-((1S,4S)-2-oxa-5-azabicyclo[2.2.1]heptan-5-yl)ethyl)amino)-1-isopropyl-5a,5b,8,8,11a-pentamethyl-2,3,3a,4,5,5a,5b,6,7,7a,8,11,11a,11b,12,13,13a,13b-octadecahydro-1H-cyclopenta[a]chrysen-9-yl)benzoic acid]",< 100
